# According to patent US10087217B2 (priority 2013, dated 2018):
# System: U87 cells
# Test: Competitive inhibition of integrin targeted transduction mediated by AAV2^N587+1/azido+RGD
# Type: cell-based
substance,measurement,value
dibenzocyclooctyne [DIBO],competitive inhibition of DIBO-RGD coupling effect,competitively inhibit
